Source: ChEMBL document CHEMBL3817793, “Recent Progress in the Discovery of Next Generation Inhibitors of Aromatase from the Structure-Function Perspective” (J Med Chem, 2016)
pIC50, pKi: −log10 of the molar value.

Assays:
Aromatase [1] = target: T1, Aromatase (Homo sapiens, UniProt P11511); assay: Inhibition of human aromatase using testosterone as substrate incubated for 1 hr by HTRF assay
T1 sequence (P11511 whole entry): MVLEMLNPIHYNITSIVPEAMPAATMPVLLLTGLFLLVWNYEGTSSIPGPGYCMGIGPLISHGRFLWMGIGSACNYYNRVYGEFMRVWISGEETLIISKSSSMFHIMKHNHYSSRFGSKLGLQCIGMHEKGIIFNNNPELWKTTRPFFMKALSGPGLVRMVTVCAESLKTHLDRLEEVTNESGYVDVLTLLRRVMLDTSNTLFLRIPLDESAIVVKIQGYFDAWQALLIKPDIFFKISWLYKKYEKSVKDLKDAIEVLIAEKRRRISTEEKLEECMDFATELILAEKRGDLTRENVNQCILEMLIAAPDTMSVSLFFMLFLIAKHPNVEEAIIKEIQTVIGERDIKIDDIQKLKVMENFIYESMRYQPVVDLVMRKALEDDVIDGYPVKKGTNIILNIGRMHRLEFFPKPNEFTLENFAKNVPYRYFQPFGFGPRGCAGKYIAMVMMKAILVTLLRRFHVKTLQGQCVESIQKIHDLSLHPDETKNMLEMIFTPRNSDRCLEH

Aromatase [2] = target: T1, Aromatase; assay: Inhibition of human placental microsomal aromatase using [1beta-3H] androstenedione as substrate assessed as tritiated H2O release after 15 mins by liquid scintillation counting method
Aromatase [3] = target: T1, Aromatase; assay: Inhibition of human placental microsomal aromatase using [1beta-3H] androstenedione as substrate assessed as tritiated H2O release preincubated for 5 mins followed by protein addition measured after 20 mins by beta counting method
Aromatase [4] = target: T1, Aromatase
Description: Competitive inhibition of human placental microsomal aromatase using androgen as substrate

Aromatase [5] = target: T1, Aromatase; assay: Inhibition of human placental microsomal aromatase using testosterone as substrate assessed as formation of estradiol after 10 mins
Aromatase [6] = target: T1, Aromatase; assay: Inhibition of particulate fractions of human breast cancer derived aromatase

Work on Fc1ccc(-c2cc(-n3cccc3)c3ccccc3n2)cc1 yielded a pIC50 (Aromatase [1]) of 6.10.

Work on C=CC[C@@H]1CC2=CCCC[C@]2(C)[C@H]2CC[C@]3(C)C(=O)CC[C@H]3[C@H]12 yielded a pIC50 (Aromatase [2]) of 6.12.

C[C@]12Cc3cc[nH]c3C(=O)[C@@H]1CC[C@@H]1[C@@H]2CC[C@]2(C)[C@@H](O)CC[C@@H]12 gave a pIC50 (Aromatase [3]) of 6.29.

Work on COc1ccc2c(Cc3ccccc3)c(-c3ccc(Cl)cc3)c(=O)oc2c1 yielded a pKi (Aromatase [4]) of 7.08.

With C=CC[C@@H]1CC2=CC(=O)CC[C@]2(C)[C@H]2CC[C@]3(C)C(=O)CC[C@H]3[C@H]12 the pIC50 (Aromatase [2]) was 6.23.

With C=CC[C@@H]1CC2=CC(=O)C=C[C@]2(C)[C@H]2CC[C@]3(C)[C@@H](O)CC[C@H]3[C@H]12 the pIC50 (Aromatase [2]) was 6.35.

CC/C(=C(\c1ccc(O)cc1)c1ccc(OCCN(C)C)cc1)c1ccccc1 [AFIMOXIFENE] showed a pIC50 (Aromatase [5]) of 3.28.

For C[C@]12CCC(=O)C(O)=C1CC[C@@H]1[C@@H]2CC[C@]2(C)C(=O)CC[C@@H]12 [FORMESTANE], the pIC50 (Aromatase [6]) was 7.52.
